Measurements from patent US20250382279A1, “COMPOUNDS AND METHODS FOR YAP/TEAD MODULATION AND INDICATIONS THEREFOR” (OPNA BIO SA, priority 2023, published 2025).

system: TEAD-dependent transcription; assay: Inhibitor activity against TEAD-dependent transcription in a cell-based reporter assay (MSTO-211H+12XGTIIC luciferase); settings: Homo sapiens; MSTO-211H+12XGTIIC cell line, 24 hours compound incubation, luminescence normalized to cell viability fluorescence; read-out: MSTO-211H GMean IC50 (uM) Cell Assay Reporter Cell Variant: TEAD
From the text: Determine Inhibitor Activity Against TEAD-Dependent Transcription in a Cell-Based Reporter Assay
The human mesothelioma cell line MSTO-211H was stably transfected with a pGL4.21 plasmid containing a synthetic promoter with 12 copies of the GTIIC TEAD response element that drives the expression of a luciferase reporter gene^1 using Lipofectamine transfection reagent (Thermno Fisher). Transfected cells were selected using puromycin and single cell clones expressing this construct (referred to as MSTO-211H+12XGTIIC) were generated by limiting dilution. MSTO-211H cells was characterized by genetic alterations in key components of the Hippo pathway^2, resulting in up-regulation of YAP/TEAD-mediated transcription. […] To evaluate TEAD inhibitors, the MSTO-211H+12XGTIIC cell line was seeded in a 96-well plate in 50 μL of culture media at 1×10^4 cells per well and incubated at 37° C. overnight. Serial dilutions of compounds (in total volume of 50 μL of culture media) were added to the cells and incubated at 37° C. for 24 hours. Each plate included cells treated with DMSO as high controls and cells treated with 20 μM of the reference compound K-975 (a known TEAD inhibitor)^3 as low controls. Cell viability was assayed by the addition of 25 μL of CellTiter-Fluor reagent (Promega) followed by a 30-minute incubation at 37° C. and quantification of the fluorescence signal (Ex400/Em505). Subsequently, luciferase expression was assayed by the addition of 25 μL of ONE-Glo reagent (Promega) followed by a 10-minute incubation at room temperature and quantification of the luminescence signal. The luminescence signal was normalized to the fluorescence signal to correct for any loss in cell viability over the 24-hour compound incubation period. The percentage of inhibition of normalized luminescence signal, indicative of compound-mediated inhibition of TEAD-dependent transcription, at individual compound concentrations relative to high and low controls was calculated. The data were analyzed by using nonlinear regression to generate IC50 values for individual compounds.

`CS(=O)(=O)c1cccc(N2CCc3c(Oc4ccc(C(F)(F)F)cc4)cccc3C2=O)c1` [O-0001, 2-(3-(methylsulfonyl)phenyl)-5-(4-(trifluoromethyl)phenoxy)-3,4-dihydroisoquinolin-1(2H)-one] was tested. Which IC50 did it give?
The IC50 was 0.001 to 10 µM.

`CS(=O)(=O)c1ccc(N2CCc3c(Oc4ccc(C(F)(F)F)cc4)cccc3C2=O)cc1` [O-0002, 2-(4-(methylsulfonyl)phenyl)-5-(4-(trifluoromethyl)phenoxy)-3,4-dihydroisoquinolin-1(2H)-one] was tested. Which IC50 did it give?
The IC50 was 0.001 to 10 µM.

Which IC50 does the source give for `O=C1c2cccc(Oc3ccc(C(F)(F)F)cc3)c2CCN1c1cccc(C(F)(F)F)c1` [O-0003, 5-(4-(trifluoromethyl)phenoxy)-2-(3-(trifluoromethyl)phenyl)-3,4-dihydroisoquinolin-1(2H)-one] here?
Its IC50 is 0.001 to 10 µM.

For `O=C1c2cccc(Oc3ccc(C(F)(F)F)cc3)c2CCN1c1ccc(S(=O)(=O)C(F)(F)F)cc1` [O-0004, 5-(4-(trifluoromethyl)phenoxy)-2-(4-((trifluoromethyl)sulfonyl)phenyl)-3,4-dihydroisoquinolin-1(2H)-one], which IC50 is on record?
Its IC50 is 0.001 to 10 µM.

How did the IC50 turn out when `O=C1c2cccc(Oc3ccc(C(F)(F)F)cc3)c2CCN1c1cccc(S(=O)(=O)C(F)(F)F)c1` [O-0005, 5-(4-(trifluoromethyl)phenoxy)-2-(3-((trifluoromethyl)sulfonyl)phenyl)-3,4-dihydroisoquinolin-1(2H)-one] was run?
The IC50 was 0.001 to 10 µM.

With `CS(=O)(=O)C1CC(N2CCc3c(Oc4ccc(C(F)(F)F)cc4)cccc3C2=O)C1` (centres unmarked) [O-0006, 2-(3-(methylsulfonyl)cyclobutyl)-5-(4-(trifluoromethyl)phenoxy)-3,4-dihydroisoquinolin-1(2H)-one] as the compound, how does the IC50 read?
The IC50 was 0.001 to 10 µM.

Which IC50 does the source give for `CS(=O)(=O)c1nccc(N2CCc3c(Oc4ccc(C(F)(F)F)cc4)cccc3C2=O)n1` [O-0007, 2-(2-(methylsulfonyl)pyrimidin-4-yl)-5-(4-(trifluoromethyl)phenoxy)-3,4-dihydroisoquinolin-1(2H)-one] here?
Its IC50 is 0.001 to 10 µM.

With `Nc1ccc(N2CCc3c(Oc4ccc(C(F)(F)F)cc4)cccc3C2=O)cc1` [O-0010, 2-(4-aminophenyl)-5-(4-(trifluoromethyl)phenoxy)-3,4-dihydroisoquinolin-1(2H)-one] as the compound, how does the IC50 read?
The IC50 was 0.001 to 10 µM.

With `Nc1cccc(N2CCc3c(Oc4ccc(C(F)(F)F)cc4)cccc3C2=O)c1` [O-0011, 2-(3-aminophenyl)-5-(4-(trifluoromethyl)phenoxy)-3,4-dihydroisoquinolin-1(2H)-one] as the compound, how does the IC50 read?
Its IC50 is 0.001 to 10 µM.

For `C=CC(=O)Nc1cccc(N2CCc3c(Oc4ccc(C(F)(F)F)cc4)cccc3C2=O)c1` [O-0012, N-(3-(1-oxo-5-(4-(trifluoromethyl)phenoxy)-3,4-dihydroisoquinolin-2(1H)-yl)phenyl)acrylamide], which IC50 is on record?
The IC50 was 0.001 to 10 µM.

How did the IC50 turn out when `C=CC(=O)Nc1ccc(N2CCc3c(Oc4ccc(C(F)(F)F)cc4)cccc3C2=O)cc1` [O-0013, N-(4-(1-oxo-5-(4-(trifluoromethyl)phenoxy)-3,4-dihydroisoquinolin-2(1H)-yl)phenyl)acrylamide] was run?
Its IC50 is 0.001 to 10 µM.

How did the IC50 turn out when `O=C1c2cccc(Oc3ccc(C(F)(F)F)cc3)c2CCN1c1ccc2nc(C(F)(F)F)sc2c1` [O-0014, 2-(2-(trifluoromethyl)benzo[d]thiazol-6-yl)-5-(4-(trifluoromethyl)phenoxy)-3,4-dihydroisoquinolin-1(2H)-one] was run?
Its IC50 is 0.001 to 10 µM.

For `O=C1c2cccc(Oc3ccc(C(F)(F)F)cc3)c2CCN1c1ccc2nc(C(F)(F)F)[nH]c2c1` [O-0016, 2-(2-(trifluoromethyl)-1H-benzo[d]imidazol-6-yl)-5-(4-(trifluoromethyl)phenoxy)-3,4-dihydroisoquinolin-1(2H)-one], which IC50 is on record?
The IC50 was 0.001 to 10 µM.

How did the IC50 turn out when `N#Cc1nc2ccc(N3CCc4c(Oc5ccc(C(F)(F)F)cc5)cccc4C3=O)cc2o1` [O-0017, 6-(1-oxo-5-(4-(trifluoromethyl)phenoxy)-3,4-dihydroisoquinolin-2(1H)-yl)benzo[d]oxazole-2-carbonitrile] was run?
Its IC50 is 0.001 to 10 µM.

Which IC50 does the source give for `CS(=O)(=O)N1CCC(N2CCc3c(Oc4ccc(C(F)(F)F)cc4)cccc3C2=O)CC1` [O-0018, 2-(1-(methylsulfonyl)piperidin-4-yl)-5-(4-(trifluoromethyl)phenoxy)-3,4-dihydroisoquinolin-1(2H)-one] here?
The IC50 was 0.001 to 10 µM.

For `O=C1c2cccc(Oc3ccc(C(F)(F)F)cc3)c2CCN1c1ccnc(S(=O)(=O)C(F)(F)F)n1` [O-0019, 5-(4-(trifluoromethyl)phenoxy)-2-(2-((trifluoromethyl)sulfonyl)pyrimidin-4-yl)-3,4-dihydroisoquinolin-1(2H)-one], which IC50 is on record?
The IC50 was 0.001 to 10 µM.

Which IC50 does the source give for `O=C1c2cccc(Oc3ccc(C(F)(F)F)cc3)c2CCN1C1CCN(S(=O)(=O)C(F)(F)F)CC1` [O-0020, 5-(4-(trifluoromethyl)phenoxy)-2-(1-((trifluoromethyl)sulfonyl)piperidin-4-yl)-3,4-dihydroisoquinolin-1(2H)-one] here?
The IC50 was 0.001 to 10 µM.

`CS(=O)(=O)N1CCCC(N2CCc3c(Oc4ccc(C(F)(F)F)cc4)cccc3C2=O)C1` (centres unmarked) [O-0022, 2-(1-(methylsulfonyl)piperidin-3-yl)-5-(4-(trifluoromethyl)phenoxy)-3,4-dihydroisoquinolin-1(2H)-one] was tested. Which IC50 did it give?
Its IC50 is 0.001 to 10 µM.

Which IC50 does the source give for `CS(=O)(=O)N1CCC(N2CCc3c(Oc4ccc(C(F)(F)F)cc4)cccc3C2=O)C1` (centres unmarked) [O-0027, 2-(1-(methylsulfonyl)pyrrolidin-3-yl)-5-(4-(trifluoromethyl)phenoxy)-3,4-dihydroisoquinolin-1(2H)-one] here?
Its IC50 is 0.001 to 10 µM.

With `CS(=O)(=O)c1cccc(N2CCc3ccc(Oc4ccc(C(F)(F)F)cc4)cc3C2=O)n1` [O-0031, 2-(6-(methylsulfonyl)pyridin-2-yl)-7-(4-(trifluoromethyl)phenoxy)-3,4-dihydroisoquinolin-1(2H)-one] as the compound, how does the IC50 read?
The IC50 was 0.001 to 10 µM.

Which IC50 does the source give for `O=C1c2cc(Oc3ccc(C(F)(F)F)cc3)ccc2CCN1c1cccc(S(=O)(=O)C(F)(F)F)n1` [O-0032, 7-(4-(trifluoromethyl)phenoxy)-2-(6-((trifluoromethyl)sulfonyl)pyridin-2-yl)-3,4-dihydroisoquinolin-1(2H)-one] here?
The IC50 was 0.001 to 10 µM.

With `CS(=O)(=O)c1ccnc(N2CCc3ccc(Oc4ccc(C(F)(F)F)cc4)cc3C2=O)c1` [O-0033, 2-(4-(methylsulfonyl)pyridin-2-yl)-7-(4-(trifluoromethyl)phenoxy)-3,4-dihydroisoquinolin-1(2H)-one] as the compound, how does the IC50 read?
Its IC50 is 0.001 to 10 µM.

`O=C1c2cc(Oc3ccc(C(F)(F)F)cc3)ccc2CCN1c1cccc(S(=O)(=O)C(F)(F)F)c1` [O-0035, 7-(4-(trifluoromethyl)phenoxy)-2-(3-((trifluoromethyl)sulfonyl)phenyl)-3,4-dihydroisoquinolin-1(2H)-one] was tested. Which IC50 did it give?
The IC50 was 0.001 to 10 µM.

With `CS(=O)(=O)c1nccc(N2CCc3ccc(Oc4ccc(C(F)(F)F)cc4)cc3C2=O)n1` [O-0036, 2-(2-(methylsulfonyl)pyrimidin-4-yl)-7-(4-(trifluoromethyl)phenoxy)-3,4-dihydroisoquinolin-1(2H)-one] as the compound, how does the IC50 read?
Its IC50 is 0.001 to 10 µM.

Which IC50 does the source give for `O=C1c2cc(Oc3ccc(C(F)(F)F)cc3)ccc2CCN1c1cccc(-c2nccs2)c1` [O-0038, 2-(3-(thiazol-2-yl)phenyl)-7-(4-(trifluoromethyl)phenoxy)-3,4-dihydroisoquinolin-1(2H)-one] here?
The IC50 was 0.001 to 10 µM.

For `O=C1c2cc(Oc3ccc(C(F)(F)F)cc3)ccc2CCN1c1cccc(-c2cscn2)c1` [O-0039, 2-(3-(thiazol-4-yl)phenyl)-7-(4-(trifluoromethyl)phenoxy)-3,4-dihydroisoquinolin-1(2H)-one], which IC50 is on record?
The IC50 was 0.001 to 10 µM.
